Reference: patent publication US11230526B1, “Cylcoalkenyl derivatives useful as agonists of the GPR120 and/or GPR40 receptors” (Janssen Pharmaceutica NV, priority 2018, dated 2022)

Columns and labels:
Human GPR120 short form = target: T1, Human GPR120 short form (Homo sapiens, UniProt Q5NUL3); experiment: Human GPR120 calcium flux assay, Procedure Calcium B (4200 cells/well); assay type: cell-based
T1 construct: expressed in transfected cells
T1 sequence (Q5NUL3 1-361): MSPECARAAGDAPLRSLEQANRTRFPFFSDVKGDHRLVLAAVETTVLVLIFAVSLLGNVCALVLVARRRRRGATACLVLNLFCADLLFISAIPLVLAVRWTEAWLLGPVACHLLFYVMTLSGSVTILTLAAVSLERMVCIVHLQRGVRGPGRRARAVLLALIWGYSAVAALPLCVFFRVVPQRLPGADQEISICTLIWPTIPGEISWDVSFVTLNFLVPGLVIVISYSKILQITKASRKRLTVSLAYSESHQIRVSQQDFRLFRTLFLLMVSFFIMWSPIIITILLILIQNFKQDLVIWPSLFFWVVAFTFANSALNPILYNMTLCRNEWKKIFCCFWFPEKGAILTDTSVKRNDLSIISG
Procedure, shortened: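 Agonist EC50 came from a four-parameter fit of RFU (Fmax−Fmin) read over 300 s on FLIPR. Cells were HEK293 stably transfected with human GPR120 (NM_001195755.1) at 4200 per well, serum-starved 1 h and loaded with Fluo-4 NW dye with probenecid before ligand addition.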

human GPR40 = target: T2, human GPR40 (Homo sapiens, UniProt O14842); experiment: GPR40 calcium flux assay, human GPR40; assay type: cell-based; conditions: HEK293 cells stably expressing GPR40; table does not say human or rat
T2 construct: expressed in transfected cells
T2 sequence (O14842 whole entry): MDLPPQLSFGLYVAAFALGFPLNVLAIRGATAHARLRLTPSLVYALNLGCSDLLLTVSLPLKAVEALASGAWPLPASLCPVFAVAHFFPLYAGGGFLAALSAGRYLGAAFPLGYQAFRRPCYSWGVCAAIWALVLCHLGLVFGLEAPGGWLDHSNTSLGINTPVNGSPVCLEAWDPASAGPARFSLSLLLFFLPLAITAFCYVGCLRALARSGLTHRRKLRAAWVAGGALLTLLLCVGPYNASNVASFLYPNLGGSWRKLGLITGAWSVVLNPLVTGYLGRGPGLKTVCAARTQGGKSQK
Procedure, shortened: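 Cells preincubated 1 h at 37° C. in HBSS, 20 mM HEPES, 0.1% BSA, then Fluo 8 calcium dye 30 min at 37° C. and 15 min at room temperature.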

Row | EC50 (Human GPR120 short form) [nM] | EC50 (human GPR40) [nM] | Structure (SMILES)
1 | 2010 | 1500 | CC1(C)CCC(C2CCCC2)=C(COc2ccc(CCC(=O)O)c(C(F)(F)F)c2)C1 [Compound 604, 3-[4-[(2-cyclopentyl-5,5-dimethyl-cyclohexen-1-yl)methoxy]-2-(trifluoromethyl)phenyl]Propanoic Acid]
2 | 1170 | 852 | CC1(C)CCC(C2CCCC2)=C(COc2ccc(CCC(=O)O)c(Cl)c2)C1 [Compound 605, 3-[2-chloro-4-[(2-cyclopentyl-5,5-dimethyl-cyclohexen-1-yl)methoxy]phenyl]Propanoic Acid]
3 | 166 | 247 | O=C(O)CCc1ccc(OCC2=C(C3CCCC3)CCC(F)(F)C2)cc1C(F)(F)F [Compound 606, 3-[4-[(2-cyclopentyl-5,5-difluoro-cyclohexen-1-yl)methoxy]-2-(trifluoromethyl)phenyl]Propanoic Acid]
4 | 148 | 325 | O=C(O)CCc1ccc(OCC2=C(C3CCCC3)CCC(F)(F)C2)cc1Cl [Compound 607, 3-[2-chloro-4-[(2-cyclopentyl-5,5-difluoro-cyclohexen-1-yl)methoxy]phenyl]Propanoic Acid]
5 | 302 | 267 | O=C(O)CCc1ccc(OCC2=C(C3CCCC3)CCC(F)(F)CC2)cc1F [Compound 610, 3-[4-[(2-cyclopentyl-5,5-difluoro-cyclohepten-1-yl)methoxy]-2-fluoro-phenyl]Propanoic Acid]
6 | 312 | 733 | O=C(O)CCc1ccc(OCC2=C(C3CCCC3)CCC(F)(F)CC2)cc1 [Compound 611, 3-[4-[(2-cyclopentyl-5,5-difluoro-cyclohepten-1-yl)methoxy]phenyl]Propanoic Acid]
7 | 233 | 107 | O=C(O)CCc1ccc(OCC2=C(C3CCCC3)CCCCC2)cc1C(F)(F)F [Compound 612, 3-[4-[(2-cyclopentylcyclohepten-1-yl)methoxy]-2-(trifluoromethyl)phenyl]Propanoic Acid]
8 | 436 | 225 | O=C(O)CCc1ccc(OCC2=C(C3CCCC3)CCCCC2)cc1F [Compound 613, 3-[4-[(2-cyclopentylcyclohepten-1-yl)methoxy]-2-fluoro-phenyl]Propanoic Acid]
9 | 376 | 560 | O=C(O)CCc1ccc(OCC2=C(C3CCCC3)CCCCC2)cc1 [Compound 614, 3-[4-[(2-cyclopentylcyclohepten-1-yl)methoxy]phenyl]Propanoic Acid]
10 | 172 | > 10000 | Cc1c(CCC(=O)O)ccc(OCC2=C(c3ccc(Cl)cc3)CCCCC2)c1C [Compound 615, 3-[4-[[2-(4-chlorophenyl)cyclohepten-1-yl]methoxy]-2,3-dimethyl-phenyl]Propanoic Acid]
11 | 166 | 3550 | Cc1c(CCC(=O)O)ccc(OCC2=C(c3ccc(Cl)cc3)CCC(F)(F)CC2)c1C [Compound 616, 3-[4-[[2-(4-chlorophenyl)-5,5-difluoro-cyclohepten-1-yl]methoxy]-2,3-dimethyl-phenyl]Propanoic Acid]
12 | 215 | 103 | O=C(O)CCc1ccc(OCC2=C(C3CCCC3)CCC(F)(F)CC2)cc1C(F)(F)F [Compound 617, 3-[4-[(2-cyclopentyl-5,5-difluoro-cyclohepten-1-yl)methoxy]-2-(trifluoromethyl)phenyl]Propanoic Acid]
13 | 188 | > 10000 | Cc1c(CCC(=O)O)ccc(OCC2=C(C3CCCC3)CCC(F)(F)CC2)c1C [Compound 618, 3-[4-[(2-cyclopentyl-5,5-difluoro-cyclohepten-1-yl)methoxy]-2,3-dimethyl-phenyl]Propanoic Acid]

The next lines start with the compound.

Row | Structure (SMILES) | EC50 (Human GPR120 short form) [nM] | EC50 (human GPR40) [nM]
14 | CCCC1=C(COc2ccc(CCC(=O)O)cc2)CCCC1 [Compound 589, 3-[4-[(2-propylcyclohexen-1-yl)methoxy]phenyl]Propanoic Acid] | 3150 | 2390
15 | CCCC1=C(COc2ccc(CCC(=O)O)c(C(F)(F)F)c2)CCCC1 [Compound 590, 3-[4-[(2-propylcyclohexen-1-yl)methoxy]-2-(trifluoromethyl)phenyl]Propanoic Acid] | 1360 | 316
16 | CCCC1=C(COc2ccc(CCC(=O)O)c(Cl)c2)CCCC1 [Compound 591, 3-[2-chloro-4-[(2-propylcyclohexen-1-yl)methoxy]phenyl]Propanoic Acid] | 2390 | 431
17 | O=C(O)CCc1ccc(OCC2=C(C3CC4CCC3C4)CCCC2)cc1C(F)(F)F (stereo not shown) [Compound 592, 3-[4-[(2-norbornan-2-ylcyclohexen-1-yl)methoxy]-2-(trifluoromethyl)phenyl]Propanoic Acid] | > 5000 | 1550
18 | O=C(O)CCc1ccc(OCC2=C(C3CC4CCC3C4)CCCC2)cc1Cl (stereo not shown) [Compound 593, 3-[2-chloro-4-[(2-norbornan-2-ylcyclohexen-1-yl)methoxy]phenyl]Propanoic Acid] | > 5000 | 1300
19 | O=C(O)CCc1ccc(OCC2=C(C3CCCC3)CCCC2)cc1Cl [Compound 594, 3-[2-chloro-4-[(2-cyclopentylcyclohexen-1-yl)methoxy]phenyl]Propanoic Acid] | 362 | > 10000
20 | O=C(O)CCc1ccc(OCC2=C(Cc3cncs3)CCCC2)cc1Cl [Compound 595, 3-[2-chloro-4-[[2-(thiazol-5-ylmethyl)cyclohexen-1-yl]methoxy]phenyl]Propanoic Acid] | 1110 | 218
21 | O=C(O)CCc1ccc(OCC2=C(Cc3cncs3)CCCC2)cc1C(F)(F)F [Compound 596, 3-[4-[[2-(thiazol-5-ylmethyl)cyclohexen-1-yl]methoxy]-2-(trifluoromethyl)phenyl]Propanoic Acid] | 2370 | 324
22 | CCCCC1=C(COc2ccc(CCC(=O)O)c(C(F)(F)F)c2)CCCC1 [Compound 598, 3-[4-[(2-butylcyclohexen-1-yl)methoxy]-2-(trifluoromethyl)phenyl]Propanoic Acid] | 399 | 177
23 | O=C(O)CCc1ccc(OCC2=C(C3CCC3)CCCC2)cc1C(F)(F)F [Compound 599, 3-[4-[(2-cyclobutylcyclohexen-1-yl)methoxy]-2-(trifluoromethyl)phenyl]Propanoic Acid] | 1350 | 98
24 | O=C(O)CCc1ccc(OCC2=C(C3CCC3)CCCC2)cc1Cl [Compound 600, 3-[2-chloro-4-[(2-cyclobutylcyclohexen-1-yl)methoxy]phenyl]Propanoic Acid] | 1200 | 24
25 | O=C(O)CCc1ccc(OCC2=C(C3CCCCC3)CCCC2)cc1Cl [Compound 602, 3-[2-chloro-4-[(2-cyclohexylcyclohexen-1-yl)methoxy]phenyl]Propanoic Acid] | 2410 | 1060
26 | O=C(O)CCc1ccc(OCC2=C(C3CCCC3)CCCC2)cc1C(F)(F)F [Compound 603, 3-[4-[(2-cyclopentylcyclohexen-1-yl)methoxy]-2-(trifluoromethyl)phenyl]Propanoic Acid] | 1970 | 185
